Data published in patent publication US10947222B2, “Indole derivatives useful as inhibitors of diacylglyceride O-acyltransferase 2” (Merck Sharp & Dohme Corp., priority 2016, dated 2021).

Target: human DGAT2 (hDGAT2) (Homo sapiens (Human), UniProt Q96PD7)
Experiment: DGAT2 enzymatic activity assay (triolein formation, LC/MS/MS)
Type: biochemical
Settings: Sf-9 membrane prep expressing hDGAT2; 25 μM diolein, 10 μM oleoyl-CoA; triolein by LC/MS/MS
Description: Sf-9 insect cells were maintained in Grace's insect cell culture medium with 10% heated-inactivated fetal bovine serum, 1% Pluronic F-68 and 0.14 μg/ml Kanamycine sulfate in Erlenmeyer flasks at 28° C. in a shaker incubator. After infection with untagged baculovirus expressing human DGAT2 (hDGAT2) at multiplicity of infection (MOI) 0.1 for 48 hours, cells were harvested. Cell pellets were suspended in buffer containing 10 mM Tris-HCl (pH 7.5), 1 mM EDTA (pH 8.0), 250 mM sucrose and Complete Protease Inhibitor Cocktail (Roche Diagnostics Corp., Indianapolis, Ill.), and sonicated on ice. Membrane fractions were isolated by ultracentrifugation (100,000×g pellet), resuspended in the same buffer, and frozen (−80° C.) for later use. The protein concentration was determined with the BCA Protein Assay kit (Pierce Biotechnology Inc., Rockford, Ill.). Expression of protein levels was analyzed by immunoblotting with goat polyclonal DGAT2 antibody C-15 and donkey anti-goat IgG HRP (Santa Cruz Biotechnology, Inc., Santa Cruz, Calif.) followed by detection with ECL reagent (GE Healthcare, Piscataway, N.J.).
LC/MS/MS analyses were performed using Thermal Fisher's LX4-TSQ Vantage system. This system consists of an Agilent binary high-performance liquid chromatography (HPLC) pumps and a TSQ Vantage triple quadrupole MS/MS instrument. For each sample, 2 μL samples from the top organic layer of in-plate liquid-liquid extraction were injected onto a Thermo Betabasic C4 column (2.1 mm×20 mm, 5 μm particle size). The samples were then eluted using the following conditions; mobile phase: methanol/water with 0.1% ammonium format=92/8 (v/v), flow rate: 1 mL/min, temperature: 25 C. Data was acquired in positive mode using a heated electrospray ionization (HESI) interface. The operational parameters for the TSQ Vantage MS/MS instrument were a spray voltage of 3000 V, capillary temperature of 280° C., vaporizer temperature 400° C., shealth gas 60 arbitrary unit, Aux gas 40 arbitrary units, S-lens 113 and collision gas 0.16 Pascals. […] (SRM) chromatograms of triolein (Q1:902.9>Q3:602.3) and internal standard (Q1:902.9>Q3:602.3) were collected for 40 sec. The peak area was integrated by Xcalibur Quan software. The ratio between the triolein generated in the reaction and spiked in internal standard was used to generate percentage inhibition and IC50 values. Compound percentage inhibition was calculated by the following formula: Inhibition %/=1−[(compound response−low control)/(high control−low control)]×100%. Potent compounds were titrated and IC50 were calculated by 4 parameter sigmoidal curve fitting formula.
DGAT2 activity was determined by measuring the amount of enzymatic product triolein (1,2,3-Tri(cis-9-octadecenoyl)glycerol) using the membrane prep mentioned above. The assay was carried out in deep well 384 plates in a final volume of 40 μL at rt. The assay mixture contained the following: assay buffer (100 mM Tris.Cl, pH 7.0, 20 mM MgCl2, 5% ethanol), 25 μM of diolein, 10 μM of oleoyl-CoA and 10 ng/μL of DGAT2 membrane.

Chain of human DGAT2 (hDGAT2) (Q96PD7 whole entry): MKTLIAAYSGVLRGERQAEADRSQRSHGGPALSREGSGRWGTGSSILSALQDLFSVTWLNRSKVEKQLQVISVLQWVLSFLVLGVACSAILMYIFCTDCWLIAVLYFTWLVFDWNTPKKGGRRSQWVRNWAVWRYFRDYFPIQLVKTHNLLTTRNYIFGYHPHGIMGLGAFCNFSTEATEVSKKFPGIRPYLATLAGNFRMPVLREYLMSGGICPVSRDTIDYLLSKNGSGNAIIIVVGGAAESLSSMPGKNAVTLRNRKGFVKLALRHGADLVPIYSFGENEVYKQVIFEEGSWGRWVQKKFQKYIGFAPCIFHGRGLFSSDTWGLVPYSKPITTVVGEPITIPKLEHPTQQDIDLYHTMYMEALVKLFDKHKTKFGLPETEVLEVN

CC1(NC(=O)c2ccc3c(-c4ccccc4Cl)cn(-c4ccc(F)cc4)c3c2)CCS(=O)(=O)C1 (racemic) [Example 1, 3-(2-chlorophenyl)-1-(4-fluorophenyl)-N-(3-methyl-1,1-dioxidotetrahydrothiophen-3-yl)-1H-indole-6-carboxamide]
IC50: 8.8 nM

O=C(NC1CCS(=O)(=O)C1)c1ccc2c(-c3ccccc3Cl)cn(-c3ccc(F)cc3)c2c1 (racemic) [Example 2, 3-(2-Chlorophenyl)-N-(1,1-dioxidotetrahydrothiophen-3-yl)-1-(4-fluorophenyl)-1H-indole-6-carboxamide]
IC50: 66 nM

COCC(C)NC(=O)c1ccc2c(-c3ccccc3Cl)cn(-c3ccc(F)cc3)c2c1 (racemic) [Example 3, 3-(2-chlorophenyl)-1-(4-fluorophenyl)-N-(1-methoxypropan-2-yl)-1H-indole-6-carboxamide (racemic)]
IC50: 344 nM

Cc1cc(C)nc(-c2cn(-c3ccc(F)cc3)c3cc(C(=O)NC4CCS(=O)(=O)C4)ccc23)c1 (racemic) [Example 20, 3-(4,6-dimethylpyridin-2-yl)-N-(1,1-dioxidotetrahydrothiophen-3-yl)-1-(4-fluorophenyl)-1H-indole-6-carboxamide (racemic)]
IC50: 802 nM

O=C(NC1CCS(=O)(=O)C1)c1ccc2c(-c3cc(Cl)ccn3)cn(-c3ccc(F)cc3)c2c1 (racemic) [Example 21, 3-(4-chloropyridin-2-yl)-N-(1,1-dioxidotetrahydrothiophen-3-yl)-1-(4-fluorophenyl)-1H-indole-6-carboxamide (racemic)]
IC50: 252 nM

O=C(NC1CCS(=O)(=O)C1)c1ccc2c(-c3ccccn3)cn(-c3ccc(F)cc3)c2c1 (racemic) [Example 22, N-(1,1-dioxidotetrahydrothiophen-3-yl)-1-(4-fluorophenyl)-3-(pyridin-2-yl)-1H-indole-6-carboxamide (racemic)]
IC50: 664 nM

Cc1ccnc(-c2cn(-c3ccc(F)cc3)c3cc(C(=O)NC4CCS(=O)(=O)C4)ccc23)c1 (racemic) [Example 23, N-(1,1-dioxidotetrahydrothiophen-3-yl)-1-(4-fluorophenyl)-3-(4-methylpyridin-2-yl)-1H-indole-6-carboxamide (racemic)]
IC50: 117 nM

Cc1ccnc(-c2cn(-c3ccc(F)cc3)c3cc(C(=O)NC4(C)CCS(=O)(=O)C4)ccc23)c1 (racemic) [Example 24, 1-(4-fluorophenyl)-N-(3-methyl-1,1-dioxidotetrahydrothiophen-3-yl)-3-(4-methylpyridin-2-yl)-1H-indole-6-carboxamide (racemic)]
IC50: 571 nM

CC1(NC(=O)c2ccc3c(-c4cncc(OC(F)F)c4)cn(-c4ccc(F)cc4)c3c2)CCS(=O)(=O)C1 (racemic) [Example 25, 3-(5-(difluoromethoxy)pyridin-3-yl)-1-(4-fluorophenyl)-N-(3-methyl-1,1-dioxidotetrahydrothiophen-3-yl)-1H-indole-6-carboxamide (racemic)]
IC50: 0.77 nM

Cc1c(-c2cccc(OC(F)F)c2)c2ccc(C(=O)NC3(C)CCS(=O)(=O)C3)cc2n1-c1ccc(F)cc1 (racemic) [Example 28, 3-(3-(difluoromethoxy)phenyl)-1-(4-fluorophenyl)-2-methyl-N-(3-methyl-1,1-dioxidotetrahydrothiophen-3-yl)-1H-indole-6-carboxamide (racemic)]
IC50: 17 nM

COc1ccccc1-c1cn(-c2ccc(F)cc2)c2cc(C(=O)NC3CCS(=O)(=O)C3)ccc12 (racemic) [Example 29, N-(1,1-dioxidotetrahydrothiophen-3-yl)-1-(4-fluorophenyl)-3-(2-methoxyphenyl)-1H-indole-6-carboxamide (racemic)]
IC50: 223 nM

O=C(NC1CCS(=O)(=O)C1)c1ccc2c(-c3cccc(C(F)(F)F)c3)cn(-c3ccc(F)cc3)c2c1 (racemic) [Example 30, N-(1,1-dioxidotetrahydrothiophen-3-yl)-1-(4-fluorophenyl)-3-[3-(trifluoromethyl)phenyl]-1H-indole-6-carboxamide (racemic)]
IC50: 18 nM

O=C(NC1CCS(=O)(=O)C1)c1ccc2c(-c3cccc(Cl)c3)cn(-c3ccc(F)cc3)c2c1 (racemic) [Example 31, 3-(3-chlorophenyl)-N-(1,1-dioxidotetrahydrothiophen-3-yl)-1-(4-fluorophenyl)-1H-indole-6-carboxamide (racemic)]
IC50: 28 nM

COC(=O)c1cccc(-c2cn(-c3ccc(F)cc3)c3cc(C(=O)NC4CCS(=O)(=O)C4)ccc23)c1 (racemic) [Example 32, methyl 3-{6-[(1,1-dioxidotetrahydrothiophen-3-yl)carbamoyl]-1-(4-fluorophenyl)-1H-indol-3-yl}benzoate (racemic)]
IC50: 3.2 nM

COc1cccc(-c2cn(-c3ccc(F)cc3)c3cc(C(=O)NC4CCS(=O)(=O)C4)ccc23)c1 (racemic) [Example 33, N-(1,1-dioxidotetrahydrothiophen-3-yl)-1-(4-fluorophenyl)-3-(3-methoxyphenyl)-1H-indole-6-carboxamide (racemic)]
IC50: 4 nM

Cc1cccc(-c2cn(-c3ccc(F)cc3)c3cc(C(=O)NC4CCS(=O)(=O)C4)ccc23)c1 (racemic) [Example 34, N-(1,1-dioxidotetrahydrothiophen-3-yl)-1-(4-fluorophenyl)-3-(3-methylphenyl)-1H-indole-6-carboxamide (racemic)]
IC50: 13 nM

O=C(NC1CCS(=O)(=O)C1)c1ccc2c(-c3cccc(F)c3)cn(-c3ccc(F)cc3)c2c1 (racemic) [Example 35, N-(1,1-dioxidotetrahydrothiophen-3-yl)-3-(3-fluorophenyl)-1-(4-fluorophenyl)-1H-indole-6-carboxamide (racemic)]
IC50: 101 nM

O=C(NC1CCS(=O)(=O)C1)c1ccc2c(-c3cccc(-c4ccccc4)c3)cn(-c3ccc(F)cc3)c2c1 (racemic) [Example 36, 3-biphenyl-3-yl-N-(1,1-dioxidotetrahydrothiophen-3-yl)-1-(4-fluorophenyl)-1H-indole-6-carboxamide (racemic)]
IC50: 61 nM

CC(=O)Nc1cccc(-c2cn(-c3ccc(F)cc3)c3cc(C(=O)NC4CCS(=O)(=O)C4)ccc23)c1 (racemic) [Example 37, 3-[3-(acetylamino)phenyl]-N-(1,1-dioxidotetrahydrothiophen-3-yl)-1-(4-fluorophenyl)-1H-indole-6-carboxamide (racemic)]
IC50: 163 nM

O=C(NC1CCS(=O)(=O)C1)c1ccc2c(-c3cccc(-n4cccn4)c3)cn(-c3ccc(F)cc3)c2c1 (racemic) [Example 38, N-(1,1-dioxidotetrahydrothiophen-3-yl)-1-(4-fluorophenyl)-3-[3-(1H-pyrazol-1-yl)phenyl]-1H-indole-6-carboxamide (racemic)]
IC50: 15 nM

O=C(NC1CCS(=O)(=O)C1)c1ccc2c(-c3cccc(OC(F)F)c3)cn(-c3ccc(F)cc3)c2c1 (racemic) [Example 39, 3-[3-(difluoromethoxy)phenyl]-N-(1,1-dioxidotetrahydrothiophen-3-yl)-1-(4-fluorophenyl)-1H-indole-6-carboxamide (racemic)]
IC50: 1.1 nM

O=C(NC1CCS(=O)(=O)C1)c1ccc2c(-c3ccccc3F)cn(-c3ccc(F)cc3)c2c1 (racemic) [Example 40, N-(1,1-dioxidotetrahydrothiophen-3-yl)-3-(2-fluorophenyl)-1-(4-fluorophenyl)-1H-indole-6-carboxamide (racemic)]
IC50: 26 nM

O=C(NC1CCS(=O)(=O)C1)c1ccc2c(-c3cc(Cl)cc(Cl)c3)cn(-c3ccc(F)cc3)c2c1 (racemic) [Example 41, 3-(3,5-dichlorophenyl)-N-(1,1-dioxidotetrahydrothiophen-3-yl)-1-(4-fluorophenyl)-1H-indole-6-carboxamide (racemic)]
IC50: 88 nM

O=C(NC1CCS(=O)(=O)C1)c1ccc2c(-c3ccccc3OC(F)F)cn(-c3ccc(F)cc3)c2c1 (racemic) [Example 42, 3-[2-(difluoromethoxy)phenyl]-N-(1,1-dioxidotetrahydrothiophen-3-yl)-1-(4-fluoropheny)-1H-indole-6-carboxamide (racemic)]
IC50: 108 nM
